In US20240376084A1, “INHIBITORS OF ALPHA-HEMOLYSIN OF STAPHYLOCOCCUS AUREUS” (Helmholtz-Zentrum Fur Infektionsforschung GmbH, priority 2021, published 2024):

molecular target: hemolysin alpha from Staphylococcus aureus (Staphylococcus aureus, UniProt P09616); test: cell-based
Sequence (P09616 27-319 limits assumed): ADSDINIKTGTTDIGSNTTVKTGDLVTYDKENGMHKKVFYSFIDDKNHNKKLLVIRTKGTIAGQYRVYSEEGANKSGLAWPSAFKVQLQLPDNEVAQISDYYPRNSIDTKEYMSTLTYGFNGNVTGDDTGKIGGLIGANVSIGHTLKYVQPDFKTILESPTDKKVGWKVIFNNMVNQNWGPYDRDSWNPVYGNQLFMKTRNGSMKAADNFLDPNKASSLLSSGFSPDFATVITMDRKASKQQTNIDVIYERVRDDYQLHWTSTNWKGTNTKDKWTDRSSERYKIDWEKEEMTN

| SMILES | EC50 [nM] | IC50 [nM] |
| --- | --- | --- |
| Cc1cc2[nH]c(=O)c(=O)[nH]c2cc1S(=O)(=O)Nc1cnc(-c2ccc(F)cc2)c(Cl)c1 [Compound 215, N-(5-chloro-6-(4-fluorophenyl)pyridin-3-yl)-7-methyl-2,3-dioxo-1,2,3,4-tetrahydroquinoxaline-6-sulfonamide] | 30 to 100 | – |
| Cc1cc2[nH]c(=O)c(=O)[nH]c2cc1S(=O)(=O)Nc1ccc(N2CCOC(C)C2)c(Cl)c1 (centres unmarked) [Compound 204, N-(3-chloro-4-(2-methylmorpholino)phenyl)-7-methyl-2,3-dioxo-1,2,3,4-tetrahydroquinoxaline-6-sulfonamide] | 1000 to 3500 | – |
| Cc1nc2ccc(NS(=O)(=O)c3cc4[nH]c(=O)c(=O)[nH]c4cc3C)cc2s1 [Compound 239, 7-methyl-N-(2-methylbenzo[d]thiazol-6-yl)-2,3-dioxo-1,2,3,4-tetrahydroquinoxaline-6-sulfonamide] | 1000 to 3500 | – |
| Cc1cc(NS(=O)(=O)c2cc3[nH]c(=O)c(=O)[nH]c3cc2Cl)cc(C)c1Br [Compound 145, N-(4-bromo-3,5-dimethylphenyl)-7-chloro-2,3-dioxo-1,2,3,4-tetrahydroquinoxaline-6-sulfonamide] | – | 100 to 1000 |
| Cc1cc2[nH]c(=O)c(=O)[nH]c2cc1S(=O)(=O)Nc1cc(C)c(-c2cnn(C)c2)c(C)c1 [Compound 184, N-(3,5-dimethyl-4-(1-methyl-1H-pyrazol-4-yl)phenyl)-7-methyl-2,3-dioxo-1,2,3,4-tetrahydroquinoxaline-6-sulfonamide] | – | 1000 to 3500 |
| Cc1cc2[nH]c(=O)c(=O)[nH]c2cc1S(=O)(=O)Nc1ccc2ncccc2c1 [Compound 186, 7-methyl-2,3-dioxo-N-(quinolin-6-yl)-1,2,3,4-tetrahydroquinoxaline-6-sulfonamide] | – | 1000 to 3500 |
| CC(C)c1cc2[nH]c(=O)c(=O)[nH]c2cc1S(=O)(=O)Nc1ccc(-c2cccc(Cl)c2)c(Cl)c1 [Compound 178, N-(2,3′-dichloro-[1,1′-biphenyl]-4-yl)-7-isopropyl-2,3-dioxo-1,2,3,4-tetrahydroquinoxaline-6-sulfonamide] | – | 100 to 1000 |
| CC(C)(C)c1ccc(NS(=O)(=O)c2cc3[nH]c(=O)c(=O)[nH]c3cc2Br)cc1 [Compound 195, 7-bromo-N-(4-(tert-butyl)phenyl)-2,3-dioxo-1,2,3,4-tetrahydroquinoxaline-6-sulfonamide] | 1000 to 3500 | – |
| Cc1ccc(NS(=O)(=O)c2cc3[nH]c(=O)c(=O)[nH]c3cc2C)cc1 [Compound 179, 7-methyl-2,3-dioxo-N-(p-tolyl)-1,2,3,4-tetrahydroquinoxaline-6-sulfonamide] | – | 100 to 1000 |
| Cc1ccc(NS(=O)(=O)c2cc3[nH]c(=O)c(=O)[nH]c3cc2C)cc1C [Compound 185, N-(3,4-dimethylphenyl)-7-methyl-2,3-dioxo-1,2,3,4-tetrahydroquinoxaline-6-sulfonamide] | – | 1000 to 3500 |
| CCOc1ccc(NS(=O)(=O)c2cc3[nH]c(=O)c(=O)[nH]c3cc2C)cc1 [Compound 111, N-(4-ethoxyphenyl)-7-methyl-2,3-dioxo-1,2,3,4-tetrahydroquinoxaline-6-sulfonamide] | – | 100 to 1000 |
| O=c1[nH]c2cc(F)c(S(=O)(=O)Nc3ccc(C(F)(F)F)c(Cl)c3)cc2[nH]c1=O [Compound 165, N-(3-chloro-4-(trifluoromethyl)phenyl)-7-fluoro-2,3-dioxo-1,2,3,4-tetrahydroquinoxaline-6-sulfonamide] | – | 1000 to 3500 |
| Cc1cc(NS(=O)(=O)c2cc3[nH]c(=O)c(=O)[nH]c3cc2F)cc(C)c1Br [Compound 162, N-(4-bromo-3,5-dimethylphenyl)-7-fluoro-2,3-dioxo-1,2,3,4-tetrahydroquinoxaline-6-sulfonamide] | – | 100 to 1000 |
| Cc1nc2cc(NS(=O)(=O)c3cc4[nH]c(=O)c(=O)[nH]c4cc3C)ccc2s1 [Compound 234, 7-methyl-N-(2-methylbenzo[d]thiazol-5-yl)-2,3-dioxo-1,2,3,4-tetrahydroquinoxaline-6-sulfonamide] | 1000 to 3500 | – |
| Cc1cc2[nH]c(=O)c(=O)[nH]c2cc1S(=O)(=O)Nc1cnc(-c2cccc(Cl)c2)c(Cl)c1 [Compound 213, N-(5-chloro-6-(3-chlorophenyl)pyridin-3-yl)-7-methyl-2,3-dioxo-1,2,3,4-tetrahydroquinoxaline-6-sulfonamide] | 100 to 1000 | – |
| Cc1cc2[nH]c(=O)c(=O)[nH]c2cc1S(=O)(=O)Nc1ccc(OC(F)(F)F)cn1 [Compound 222, 7-methyl-2,3-dioxo-N-(5-(trifluoromethoxy)pyridin-2-yl)-1,2,3,4-tetrahydroquinoxaline-6-sulfonamide] | 100 to 1000 | – |
| CC(C)c1cc2[nH]c(=O)c(=O)[nH]c2cc1S(=O)(=O)Nc1ccc(Br)c(Cl)c1 [Compound 154, N-(4-bromo-3-chlorophenyl)-7-isopropyl-2,3-dioxo-1,2,3,4-tetrahydroquinoxaline-6-sulfonamide] | – | 100 to 1000 |
| Cc1cc2[nH]c(=O)c(=O)[nH]c2cc1S(=O)(=O)Nc1ccc(-c2ccccc2)nc1 [Compound 224, 7-methyl-2,3-dioxo-N-(6-phenylpyridin-3-yl)-1,2,3,4-tetrahydroquinoxaline-6-sulfonamide] | 100 to 1000 | – |
| Cc1cc(NS(=O)(=O)c2cc3[nH]c(=O)c(=O)[nH]c3cc2F)cc(C)c1-c1ccoc1 [Compound 166, 7-fluoro-N-(4-(furan-3-yl)-3,5-dimethylphenyl)-2,3-dioxo-1,2,3,4-tetrahydroquinoxaline-6-sulfonamide] | – | 100 to 1000 |
| Cc1cc2[nH]c(=O)c(=O)[nH]c2cc1S(=O)(=O)Nc1ccc(N2CCOCC2)cc1 [Compound 180, 7-methyl-N-(4-morpholinophenyl)-2,3-dioxo-1,2,3,4-tetrahydroquinoxaline-6-sulfonamide] | – | 1000 to 3500 |
| Cc1cc2[nH]c(=O)c(=O)[nH]c2cc1S(=O)(=O)Nc1ccc(N2CCCC2)c(Cl)c1 [Compound 196, N-(3-chloro-4-(pyrrolidin-1-yl)phenyl)-7-methyl-2,3-dioxo-1,2,3,4-tetrahydroquinoxaline-6-sulfonamide] | 30 to 100 | – |
| CC(C)c1cc2[nH]c(=O)c(=O)[nH]c2cc1S(=O)(=O)Nc1ccc(-c2ccccc2)c(Cl)c1 [Compound 176, N-(2-chloro-[1,1′-biphenyl]-4-yl)-7-isopropyl-2,3-dioxo-1,2,3,4-tetrahydroquinoxaline-6-sulfonamide] | – | 100 to 1000 |
| CC(C)c1cc2[nH]c(=O)c(=O)[nH]c2cc1S(=O)(=O)Nc1ccc(-c2ccncc2)c(Cl)c1 [Compound 159, N-(3-chloro-4-(pyridin-4-yl)phenyl)-7-isopropyl-2,3-dioxo-1,2,3,4-tetrahydroquinoxaline-6-sulfonamide] | – | 1000 to 3500 |
| Cc1cc2[nH]c(=O)c(=O)[nH]c2cc1S(=O)(=O)Nc1cc(Cl)c(-c2ccc(F)cc2)cn1 [Compound 212, N-(4-chloro-5-(4-fluorophenyl)pyridin-2-yl)-7-methyl-2,3-dioxo-1,2,3,4-tetrahydroquinoxaline-6-sulfonamide] | 30 to 100 | – |
| Cc1cc(NS(=O)(=O)c2cc3[nH]c(=O)c(=O)[nH]c3cc2F)ccc1-c1ccncc1 [Compound 169, 7-fluoro-N-(3-methyl-4-(pyridin-4-yl)phenyl)-2,3-dioxo-1,2,3,4-tetrahydroquinoxaline-6-sulfonamide] | – | 100 to 1000 |
| Cc1cc2[nH]c(=O)c(=O)[nH]c2cc1S(=O)(=O)Nc1cnn(-c2ccccc2)c1 [Compound 207, 7-methyl-2,3-dioxo-N-(1-phenyl-1H-pyrazol-4-yl)-1,2,3,4-tetrahydroquinoxaline-6-sulfonamide] | 1000 to 3500 | – |
